Data from US7053194B2, “Compositions and methods for p53-mediated repression of gene expression” (Fox Chase Cancer Center, priority 1999, dated 2006).
Square brackets hold non-standard residues; d marks the D form. Peptide text beside a SMILES is read from it. Nle = CCCC[C@H](N)C(=O)O

Key:
[1] = test system: MCF-7 cells; experiment: Immunoprecipitation-western analysis of p53 and p53-mSin3a complexes; assay type: cell-based, human; conditions: MCF-7, 50 uM ALLN, 2 hours
Protocol: (§1) Sub-confluent cultures of MCF 7 and A2780 cells were treated with 100 nM trichostatin A (TSA, Sigma)for 2 hours, followed by incubation with 0.5 ug/ml adriamycin (doxorubicin, Sigma) for the indicated timepoints. Va15 cells grown at 39 degrees were treated with 100 nM TSA for two hours, followed by temperature shift to 32 degrees for 12 hours. p53 induction was monitored by western analysis of 100 ug protein as described (Murphy et al., Genes & Devel. 10:2971–2980, 1996), using 0.1ug/ml DO-1 (Ab-6, Calbiochem) or 421 (Ab-1, Calbiochem). MDM2 induction was monitored using the monoclonal antibody 2A10, kindly provided by Arnold Levine (Rockefeller University). For UV treatments, cells were irradiated with 4 J/m2 of UV-C with a Spectroline X series ultraviolet lamp, and output was monitored with a traceable UV light meter (Fisher Scientific). For ALLN treatment, MCF-7 cells were treated with 50 uM ALLN (calpain I inhibitor, Sigma) made in DMSO (dimethyl sulfoxide, Sigma) or with DMSO alone for 2 hours prior to harvesting.
Sub-confluent cultures of cells were harvested and lysed in NP-40 buffer supplemented with protease inhibitors (1 mM PMSF, 10 ug/ml pepstatin A, 10 ug/ml aprotinin, and 5ug/ml leupeptin). Protein concentrations were determined by the method of Bradford (BioRad). Equal ug amounts of protein (between 2.0 and 3.0 mg) were immunoprecipitated with 1 ug of each antibody, except for Va15 immunoprecipitations, which used 1000 ug protein, as described (Murphy et al., Genes & Devel. 10:2971–2980, 1996). For p300, antibody N15 (Santa Cruz Biotechnology) and AB-1 (Calbiochem) yielded similar results. Each IP was washed twice in NP-40 buffer (Wu, et al., Genes & Devel. 7:1126–1132, 1993), followed by 2 washes in RIPA buffer (50 mM Tris pH 7.4/150 mM NaCl/1% Triton X 100/0.1% SDSI 1% Na deoxycholate). Immunoprecipitations were run on 7.5–10% SDS-PAGE gels and transferred overnight onto Immuno-Blot PVDF membrane (BioRad). […]
These complexes persisted under stringent washing conditions (RIPA buffer washes, see Materials and Methods), and were not present using control antisera (rabbit IgG, lane 1). […] We next analyzed the p53-mSin3a interaction following post-translational stabilization of p53 mediated by DNA damaging agents. […]
We next analyzed the time-course of the p53-mSin3a interaction following exposure of cells to the DNA damaging agent adriamycin (doxorubicin). Both p53-mSin3a and p53 p300 complexes were monitored by IP-western analysis in a time course following adriamycin treatment of MCF-7 cells. As a control, p53 was immunoprecipitated using polyclonal antisera generated against full-length p53 (Santa Cruz Biotechnology). p53 levels were also assessed at each time point by western analyses (data not shown). […]

[2] = test system: Vm10 cells; experiment: Flow cytometry of sub-G1 population; assay type: cell-based, murine; conditions: Vm10 at 32 degrees (wt p53), 100 nM TSA, data not shown
[3] = test system: Va15 cells; experiment: Flow cytometric analysis of cell cycle distribution; assay type: cell-based, murine; conditions: Va15 cells cultured at 32 degrees, TSA treatment, data not shown
[4] = test system: H1299 human lung adenocarcinoma; experiment: Northern analysis of stathmin mRNA in p53-null cells; assay type: cell-based; conditions: H1299, null for p53
[5] = test system: Va15 cells; experiment: Northern analysis of Map4 mRNA after p53 induction by temperature shift; assay type: cell-based, murine; conditions: temperature shift to 32 degrees (wt p53), 100 nM TSA
Protocol: as §1
Total RNA was isolated from cells using CsC1 purification (Murphy et al., Genes & Devel. 10:2971–2980, 1996) or using Trizol, as per the manufacturer (Gibco/BRL). Northern analyses were performed as described (Murphy et al., Genes & Devel. 10:2971–2980, 1996). […] Autoradiographs were quantitated using NIH image software. […]

[6] = test system: Vm10 cells; experiment: AMC caspase assay specific for caspase 3 (apoptosis); assay type: cell-based, murine
Protocol: Apoptosis was quantitated using the AMC caspase assay specific for caspase 3 (Pharmingen). Vm10 cells were grown at 39 degrees or temperature-shifted to 32 degrees for 24 hours in the presence or absence of 100 nM trichostatin A (TSA). Vm10 cells at 39 degrees were treated with staurosporine (Calbiochem) at 100 nM, or dilution vehicle (dimethyl sulfoxide), or tumor necrosis factor alpha plus cycloheximide (10 ng/mL TNFα, RD Systems, plus 40 ug/mL cycloheximide, Sigma). Cells were harvested, lysed, and lysate was monitored for the caspase-3-dependent hydrolysis of the fluorogenic substrate Ac-DEVD-AMC, according to protocols derived from the manufacturer (Pharmingen). As a control for non-specific proteolysis, lysates from 39 degrees and 32 degrees were also assayed in the presence of the caspase-3 inhibitor Ac-DEVD-CHO (N-acetyl-Asp-Glu-Val Asp-aldehyde, Pharmingen). Fluorescence emissions were quantified on a spectrofluorometer (VersaFluor Cuvette Fluorometer) with excitation wavelength of 360 nm. and emission of 460 nm. The data presented represent duplicate readings of the averaged values from two (TNFα and staurosporine) or three (temperature shift) independent experiments.
In order to assess the contribution of p53-mediated repression to apoptosis, we utilized the cell line Vm10. This murine cell line contains a stably-transfected p53 gene encoding a temperature-sensitive protein, as well as a constitutively expressed c-myc proto-oncogene; the characteristics of this line, and its ability to undergo apoptosis at 32 degrees, have been described (Chen et al., Mol Med 1:142–152, 1996). Temperature shift and wt p53 induction of these cells results in a significant increase in caspase-3 dependent AMC-DEVD hydrolysis, a read-out for apoptosis, as measured in a spectrofluorometric assay. […] Therefore, the ability of TSA to inhibit apoptosis is specific for p53-dependent apoptosis.

[7] = test system: MCF-7 cells; experiment: Northern analysis of stathmin mRNA after adriamycin treatment; assay type: cell-based, human
Protocol: as §1
(§2) Total RNA was isolated from cells using CsC1 purification (Murphy et al., Genes & Devel. 10:2971–2980, 1996) or using Trizol, as per the manufacturer (Gibco/BRL). Northern analyses were performed as described (Murphy et al., Genes & Devel. 10:2971–2980, 1996). Probes for Northerns were radio labeled using random primers (Prime-It-II, Stratagene) and α^32P dCTP (NEN). Autoradiographs were quantitated using NIH image software. The average values from three independent experiments were plotted onto bar graphs following normalization to GAPDH.
(§3) To extend these observations, the human tumor derived cell lines MCF7 (breast carcinoma)and A2780 (ovarian carcinoma) were analyzed following treatment with adriamycin to activate the endogenous, wild type p53 protein. Because of difficulties detecting human Map4 message, we analyzed the mRNA levels of stathmin (also called oncoprotein 18). We recently identified stathmin as a p53-repressed gene. A time course of treatment of MCF-7 cells with the DNA-damaging agent adriamycin (doxorubicin, DOX) results in approximately 30% reduction of stathmin RNA levels after 8 hours and 75% reduction after 24 hours. We chose to focus further on the 12 hour timepoint of adriamycin treatment, where 50% repression of stathmin was evident, in order to limit the toxicity sometimes associated with TSA (Yoshida et al., J Biol Chem 265:17174–17179, 1990). […] The results of three independent experiments indicate that the repression of stathmin expression evident after 12 hours of adriamycin treatment is completely abrogated by incubation with TSA. In contrast, neither the post-translational stabilization of p53 by adriamycin (DOX) nor the induction of the p53 response genes mdm2 and p21/waf1 were affected by TSA. […] We have performed identical experiments in A2780 cells (ovarian carcinoma, wt p53).

[8] = test system: A2780 cells; experiment: as above; assay type: cell-based, human; conditions: A2780, co-incubation with TSA, data not shown
Protocol: as §1, §2, §3

[9] = test system: Va15 cells; experiment: Western analysis of survivin in nocodazole-arrested cells; assay type: cell-based, murine; conditions: Va15 at 39 degrees, nocodazole alone, twenty-four hours
Protocol: Western analysis was performed essentially as described (Murphy et al., 1999). Briefly, subconfluent cells were harvested and lysed in RIPA buffer (50 mM Tris at pH 7.4, 150 mM NaCl, 1% Triton X-100, 0.1% SDS, and 1% sodium deoxycholate) supplemented with protease inhibitors (1 mM PMSF, […], […], and […]). Protein concentrations were determined using the Bio-Rad Dc Protein Assay (Bio-Rad). Equal amounts of protein (between 50 and 120 ugs) were run on 10% or 12% SDS-polyacrylamide gels and transferred overnight onto PVDF membrane (Bio-Rad). Western blots were incubated in antibody in 5% nonfat dry milk in phosphate-buffered saline supplemented with 0.2% Tween 20 (PBST). Blots were incubated with primary antibody at the following dilutions: p53 Ab-6 (Calbiochem) 1:1000, actin, AC-15 (Sigma) at 1:5000, p21/waf1 (Calbiochem) 1:1000 and survivin (Novus) 1:1000. Blots were washed with PBST and incubated in horseradish peroxidase-linked secondary antibody (Jackson ImmunoResearch Laboratories) and developed via the chemiluminescence protocol provided by the manufacturer (NEN).
Va15 cells (temperature-sensitive p53 which is wild type at 32 degrees) were grown at 39 degrees (mutant p53, asynchronous growth), and arrested in G2/M following twenty-four hours of nocodazole treatment. […]

Compound: CCCC[C@@H](C=O)NC(=O)[C@H](CC(C)C)NC(=O)[C@H](CC(C)C)NC(C)=O [ALLN] (Ac-Leu-Leu-[Nle]-aldehyde)
- increase in p53 protein [1]: approximately 4 fold
- increase in the p53-mSin3a complex [1]: undetectable increase in the p53-mSin3a complex

Compound: CC(/C=C/C(=O)NO)=C\[C@@H](C)C(=O)c1ccc(N(C)C)cc1 [TSA, trichostatin A]
- sub-G1 population [2]: reduces the sub-G1 population
- cell cycle distribution [3]: did not alter the cell cycle distribution
- effect on stathmin levels [4]: neither TSA nor adriamycin had any effect on stathmin levels
- Map4 RNA levels, % of starting levels [5]: approximately 80%
- inhibition of caspase-3-dependent AMC hydrolysis ([6]; Vm10 at 32 degrees (wt p53), 100 nM TSA, 24 hours): greater than 4 fold
- inhibition of apoptosis induced by staurosporine or tumor necrosis factor alpha ([6]; Vm10 at 39 degrees (mutant p53), TSA treatment): unable to significantly inhibit apoptosis
- effect on stathmin levels, TSA alone ([7]; MCF-7, 100 nM TSA alone): undetectable effects on stathmin levels
- effect on reduction of stathmin levels following adriamycin treatment ([7]; MCF-7, 100 nM TSA plus adriamycin 12 hours): completely abrogate the reduction of stathmin levels
- effect on adriamycin-induced repression of stathmin [8]: abrogate completely this repression

Compound: COC(=O)Nc1nc2ccc(C(=O)c3cccs3)cc2[nH]1 [nocodazole]
- survivin expression [9]: increased survivin expression

Compound: N-acetyl-Asp-Glu-Val Asp-aldehyde [Ac-DEVD-CHO]
- AMC cleavage in lysate with caspase-3 inhibitor added ([6]; Vm10 lysate, addition of Ac-DEVD-CHO): negligible AMC cleavage
